{"source": "patent US20220363665A1", "about": "“QUINOLINE COMPOUNDS FOR THE TREATMENT OF AUTOIMMUNE DISEASE” (Hoffmann-La Roche Inc., priority 2019, published 2022)", "note": "pIC50: −log10 of the molar value."}
{"target": "T1, human TLR8 (Homo sapiens, UniProt Q9NR97)", "T1 construct": "host or cells: HEK293 (HEK-Blue hTLR8)", "T1 sequence (Q9NR97 27-1041)": "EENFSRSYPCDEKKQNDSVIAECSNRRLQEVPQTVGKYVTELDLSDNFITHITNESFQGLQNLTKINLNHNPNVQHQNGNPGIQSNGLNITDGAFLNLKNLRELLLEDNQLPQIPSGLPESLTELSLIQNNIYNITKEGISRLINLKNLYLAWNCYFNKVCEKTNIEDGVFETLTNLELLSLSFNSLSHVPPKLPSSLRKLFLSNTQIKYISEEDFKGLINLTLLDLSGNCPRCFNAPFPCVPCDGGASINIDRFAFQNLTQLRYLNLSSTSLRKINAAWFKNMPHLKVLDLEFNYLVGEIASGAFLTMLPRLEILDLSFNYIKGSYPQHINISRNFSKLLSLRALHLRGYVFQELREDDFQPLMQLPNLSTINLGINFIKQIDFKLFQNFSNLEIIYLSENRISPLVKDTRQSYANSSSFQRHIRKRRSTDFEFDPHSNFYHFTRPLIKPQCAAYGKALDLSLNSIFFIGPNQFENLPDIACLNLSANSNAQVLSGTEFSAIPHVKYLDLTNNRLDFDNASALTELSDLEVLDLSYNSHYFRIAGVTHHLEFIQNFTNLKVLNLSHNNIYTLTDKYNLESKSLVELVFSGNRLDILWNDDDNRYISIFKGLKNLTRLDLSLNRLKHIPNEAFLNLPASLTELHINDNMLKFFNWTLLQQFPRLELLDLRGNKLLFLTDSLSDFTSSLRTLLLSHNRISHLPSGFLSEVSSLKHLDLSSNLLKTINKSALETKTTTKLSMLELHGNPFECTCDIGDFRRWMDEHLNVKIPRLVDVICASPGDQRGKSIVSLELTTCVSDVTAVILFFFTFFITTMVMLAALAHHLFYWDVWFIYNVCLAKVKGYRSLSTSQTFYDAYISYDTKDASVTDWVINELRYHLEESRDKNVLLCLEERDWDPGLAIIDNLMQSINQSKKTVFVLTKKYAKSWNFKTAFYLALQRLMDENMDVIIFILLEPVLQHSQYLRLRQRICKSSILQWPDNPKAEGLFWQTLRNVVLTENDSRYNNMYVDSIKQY", "test": "HEK293-Blue-hTLR-8 cells assay (SEAP reporter, R848 stimulation)", "assay_type": "cell-based", "details": "HEK293-Blue-hTLR8 cells, R848, 20 hrs", "protocol": "The following tests were carried out in order to determine the activity of the compounds of formula (I) in HEK293-Blue-hTLR-7/8/9 cells assay.\nHEK293-Blue-hTLR-8 Cells Assay:\nA stable HEK293-Blue-hTLR-8 cell line was purchased from InvivoGen (Cat. #: hkb-htlr8, San Diego, Calif., USA). These cells were originally designed for studying the stimulation of human TLR8 by monitoring the activation of NF-κB. A SEAP (secreted embryonic alkaline phosphatase) reporter gene was placed under the control of the IFN-β minimal promoter fused to five NF-κB and AP-1-binding sites. The SEAP was induced by activating NF-κB and AP-1 via stimulating HEK-Blue hTLR8 cells with TLR8 ligands. Therefore the reporter expression was declined by TLR8 antagonist under the stimulation of a ligand, such as R848, for incubation of 20 hrs. The cell culture supernatant SEAP reporter activity was determined using QUANTI-Blue™ kit (Cat #. rep-qbl, Invivogen, San Diego, Calif., USA) at a wavelength of 640 nm, a detection medium that turns purple or blue in the presence of alkaline phosphatase.\nHEK293-Blue-hTLR8 cells were incubated at a density of 250,000˜450,000 cells/mL in a volume of 170 μL in a 96-well plate in Dulbecco's Modified Eagle's medium (DMEM) containing 4.5 g/L glucose, 50 U/mL penicillin, […], […], 2 mM L-glutamine, 10% (v/v) heat-inactivated fetal bovine serum with addition of 20 μL test compound in a serial dilution in the presence of final DMSO at 1% and 10 μL of 60 μM R848 in above DMEM, perform incubation under 37° C. in a CO2 incubator for 20 hrs. Then 20 μL of the supernatant from each well was incubated with 180 μL Quanti-blue substrate solution at 37° C. for 2 hrs and the absorbance was read at 620˜655 nm using a spectrophotometer. The signalling pathway that TLR8 activation leads to downstream NF-KB activation has been widely accepted, and therefore similar reporter assay was modified for evaluating TLR8 antagonist."}
{"compound": "C[C@@H]1CN(c2ccc([N+](=O)[O-])c3ncccc23)C[C@H](C(=O)NCC2CN(C)CCO2)O1", "note": "(stereo partly drawn) [Example 18, (2R,6R)-6-methyl-N-[(4-methylmorpholin-2-yl)methyl]-4-(8-nitro-5-quinolyl)morpholine-2-carboxamide]", "pIC50": "> 8.52"}
{"compound": "C[C@@H]1CN(c2ccc([N+](=O)[O-])c3ncccc23)C[C@H](C(=O)N[C@@H]2CNC[C@@H]2F)O1", "note": "[Example 19, cis-(2R,6R)-N-[41-fluoropyrrolidin-3-yl]-6-methyl-4-(8-nitro-5-quinolyl)morpholine-2-carboxamide]", "pIC50": "> 8.52"}
{"compound": "C[C@@H]1CN(c2ccc([N+](=O)[O-])c3ncccc23)C[C@H](C(=O)NC2CCN(C)CC2)O1", "note": "[Example 20, (2R,6R)-6-methyl-N-(1-methyl-4-piperidyl)-4-(8-nitro-5-quinolyl)morpholine-2-carboxamide]", "pIC50": "> 8.52"}
{"compound": "Cc1ccc(N2C[C@@H](C)O[C@@H](C(=O)N[C@@H]3CNC[C@@H]3F)C2)c2cccnc12", "note": "[Example 21, cis-(2R,6R)-N-14-fluoropyrrolidin-3-yl1-6-methyl-4-(8-methyl-5-quinolyl)morpholine-2carboxamide]", "pIC50": 8.05}
{"compound": "C[C@@H]1CN(c2ccc(Cl)c3ncccc23)C[C@H](C(=O)N[C@H]2CNC[C@H]2F)O1", "note": "[Example 22, (2R,6R)-4-(8-chloro-5-quinolyl)-N-[(3S,4R)-4-fluoropyrrolidin-3-yl]-6-methyl-morpholine-2-carboxamide]", "pIC50": 7.72}
{"compound": "C[C@H]1C[C@@H](N)CN(c2ccc(Cl)c3ncccc23)C1", "note": "[Example 23, (3R,5S)-1-(8-chloro-5-quinolyl)-5-methyl-piperidin-3-amine]", "pIC50": 8.40}
{"compound": "C[C@@H]1CN(c2ccc(Cl)c3ncccc23)C[C@H](C(=O)NC2CCN(C)CC2)O1", "note": "[Example 24, (2R,6R)-4-(8-chloro-5-quinolyI)-6-methyl-N-(1-methyl-4-piperidyl)morpholine-2-carboxamide]", "pIC50": "> 8.52"}
{"compound": "C[C@@H]1CN(c2ccc(Cl)c3ncccc23)C[C@H](C(=O)NC2CCCNCC2)O1", "note": "(stereo partly drawn) [Example 25, (2R,6R)-N-(azepan-4-yl)-4-(8-chloro-5-quinolyl)-6-methyl-morpholine-2-carboxamide]", "pIC50": "> 8.52"}
{"compound": "C[C@@H]1CN(c2ccc(Cl)c3ncccc23)C[C@H](C(=O)NCC2CN(C)CCO2)O1", "note": "(stereo partly drawn) [Example 26, (2R,6R)-4-(8-chloro-5-quinolyl)-6-methyl-N-[(4-methylmorpholin-2-yl)methyl]morpholine-2-carboxamide]", "pIC50": "> 8.52"}
{"compound": "C[C@@H]1CN(c2ccc(C(F)(F)F)c3ncccc23)C[C@H](C(=O)NC[C@@H]2C[C@@H](F)CN2)O1", "note": "[Example 27, (2R,6R)-N-[[(2S,4R)-4-fluoropyrrolidin-2-yl]methyl]-6-methyl-4-[8-(trifluoromethyl)-5-quinolyl]morpholine-2-carboxamide]", "pIC50": 7.68}
{"compound": "C[C@@H]1CN(c2ccc(C(F)(F)F)c3ncccc23)C[C@H](C(=O)NC2CNCC(F)(F)C2)O1", "note": "(stereo partly drawn) [Example 28, (2R,6R)-N-(5,5-difluoro-3-piperidyl)-6-methyl-4-[8-(trifluoromethyl)-5-quinolyl]morpholine-2-carboxamide]", "pIC50": 7.07}
{"compound": "C[C@@H]1CN(c2ccc(C(F)(F)F)c3ncccc23)C[C@H](C(=O)NCC2CNCC2(F)F)O1", "note": "(stereo partly drawn) [Example 29, (2R,6R)-N-[(4,4-difluoropyrrolidin-3-yl)methyl]-6-methyl-4-[8-(trifluoromethyl)-5-quinolyl]morpholine-2-carboxamide]", "pIC50": 7.85}
{"compound": "C[C@@H]1CN(c2ccc(C(F)(F)F)c3ncccc23)C[C@H](C(=O)NC[C@@H]2CC(F)(F)CN2)O1", "note": "[Example 30]", "pIC50": 6.89}
{"compound": "C[C@@H]1CN(c2ccc(C(F)(F)F)c3ncccc23)C[C@H](C(=O)NC2C3CCC2CNC3)O1", "note": "(stereo partly drawn) [Example 31, (2R,6R)-N-(3-azabicyclo[3.2.1]octan-8-yl)-6-methyl-4-[8-(trifluoromethyl)-5-quinolyl]morpholine-2-carboxamide]", "pIC50": 8.05}
{"compound": "C[C@@H]1CN(c2ccc(C(F)(F)F)c3ncccc23)C[C@H](C(=O)N2CCC3(CCNCC3)CC2)O1", "note": "[Example 32, 3,9-diazaspiro[5.5]undecan-3-yl-[(2R,6R)-6-methyl-4-[8-(trifluoromethyl)-5-quinolyl]morpholin-2-yl]methanone]", "pIC50": 7.70}
{"compound": "C[C@@H]1CN(c2ccc(C(F)(F)F)c3ncccc23)C[C@H](C(=O)NC2CC3COCC(C2)N3)O1", "note": "(stereo partly drawn) [Example 33, (2R,6R)-6-methyl-N-(3-oxa-9-azabicyclo[3.3.1]nonan-7-yl)-4-[8-(trifluoromethyl)-5-quinolyl]morpholine-2-carboxamide]", "pIC50": "> 8.52"}
{"compound": "C[C@@H]1CN(c2ccc(C(F)(F)F)c3ncccc23)C[C@H](C(=O)N2CCC3(CCNC3)C2)O1", "note": "(some centres unmarked) [Example 36]", "pIC50": 7.60}
{"compound": "C[C@@H]1CN(c2ccc(C(F)(F)F)c3ncccc23)C[C@H](C(=O)NC2CC3CNCC(C3)C2)O1", "note": "(stereo partly drawn) [Example 37, (2R,6R)-N-(3-azabicyclo[3.3.1]nonan-7-yl)-6-methyl-4-[8-(trifluoromethyl)-5-quinolyl]morpholine-2-carboxamide]", "pIC50": 8.22}
{"compound": "C[C@@H]1CN(c2ccc(I)c3ncccc23)C[C@H](C(=O)NC2CCN(C)CC2)O1", "note": "[Example 38, (2R,6R)-4-(8-iodo-5-quinolyl)-6-methyl-N-(1-methyl-4-piperidyl)morpholine-2-carboxamide]", "pIC50": "> 8.52"}
{"compound": "C[C@@H]1CN(c2ccc(I)c3ncccc23)C[C@H](C(=O)NCC2CN(C)CCO2)O1", "note": "(stereo partly drawn) [Example 39, (2R,6R)-4-(8-iodo-5-quinolyl)-6-methyl-N-[(4-methylmorpholin-2-yl)methyl]morpholine-2-carboxamide]", "pIC50": "> 8.52"}
{"compound": "C[C@@H]1CN(c2ccc(I)c3ncccc23)C[C@H](C(=O)NC2CNCC2F)O1", "note": "(stereo partly drawn) [Example 40, cis-(2R,6R)-N-[4-fluoropyrrolidin-3-yl]-4-(8-iodo-5-quinolyl)-6-methyl-morpholine-2-carboxamide]", "pIC50": "> 8.52"}
{"compound": "C[C@@H]1CN(c2ccc(Br)c3ncccc23)C[C@H](C(=O)NC2CNCC2F)O1", "note": "(stereo partly drawn) [Example 41, cis-(2R,6R)-4-(8-bromo-5-quinolyl)-N-[4-fluoropyrrolidin-3-yl]-6-methyl-morpholine-2-carboxamide]", "pIC50": "> 8.52"}
{"compound": "C[C@@H]1CN(c2ccc(Br)c3ncccc23)C[C@H](C(=O)NC2CCN(C)CC2)O1", "note": "[Example 42, (2R,6R)-4-(8-bromo-5-quinolyl)-6-methyl-N-(1-methyl-4-piperidyl)morpholine-2-carboxamide]", "pIC50": "> 8.52"}
{"compound": "C#Cc1ccc(N2C[C@@H](C)O[C@@H](C(=O)NC3CCN(C)CC3)C2)c2cccnc12", "note": "[Example 43, (2R,6R)-4-(8-ethynyl-5-quinolyl)-6-methyl-N-(1-methyl-4-piperidyl)morpholine-2-carboxamide]", "pIC50": "> 8.52"}
{"compound": "C[C@@H]1CN(c2ccc(C(F)(F)F)c3ncccc23)C[C@H](C(=O)NC2C[C@H]3C[C@@H]2CN3)O1", "note": "(some centres unmarked) [Example 44]", "pIC50": 7.37}
{"compound": "C[C@@H]1CN(c2ccc(C(F)(F)F)c3ncccc23)C[C@H](C(=O)NC2C3CCCC2CNC3)O1", "note": "(stereo partly drawn) [Example 45, (2R,6R)-N-(3-azabicyclo[3.3.1]nonan-9-yl)-6-methyl-4-[8-(trifluoromethyl)-5-quinolyl]morpholine-2-carboxamide]", "pIC50": "> 8.52"}
